Data reported in ChEMBL document CHEMBL3098042, “New carbocyclic nucleoside analogues with a bicyclo[2.2.1]heptane fragment as sugar moiety; synthesis, X-ray crystallography and anticancer activity” (2014).

Columns and labels:
[1] = Anticancer activity against human U937 cells assessed as decrease in uridine incorporation at 30 uM relative to control; assay type: functional, U-937; design: scale not given: the % may be the effect or the level left
[2] = Growth inhibition of human RXF393 cells at 10^-5 M relative to control; assay type: functional; details: RXF 393, values are per cent of control
MCF7 = assay: Growth inhibition of human MCF7 cells at 10^-5 M relative to control; assay type: functional; details: values are per cent of control
HCT-15 = assay: Growth inhibition of human HCT15 cells at 10^-5 M relative to control; assay type: functional; details: values are per cent of control
LOX IMVI = assay: Growth inhibition of human LOXIMVI cells at 10^-5 M relative to control; assay type: functional; details: values are per cent of control
K562 = assay: Growth inhibition of human K562 cells at 10^-5 M relative to control; assay type: functional; details: values are per cent of control
SK-MEL-5 = assay: Growth inhibition of human SK-MEL-5 cells at 10^-5 M relative to control; assay type: functional; details: values are per cent of control
HL-60(TB) = assay: Growth inhibition of human HL-60(TB) cells at 10^-5 M relative to control; assay type: functional; details: values are per cent of control
IGROV-1 = assay: Growth inhibition of human IGROV1 cells at 10^-5 M relative to control; assay type: functional; details: values are per cent of control
HCT-116 = assay: Growth inhibition of human HCT116 cells at 10^-5 M relative to control; assay type: functional; details: values are per cent of control
PC-3 = assay: Growth inhibition of human PC3 cells at 10^-5 M relative to control; assay type: functional; details: values are per cent of control
MDA-MB-468 = assay: Growth inhibition of human MDA-MB-468 cells at 10^-5 M relative to control; assay type: functional; details: values are per cent of control
CCRF-CEM = assay: Growth inhibition of human CCRF-CEM cells at 10^-5 M relative to control; assay type: functional; details: values are per cent of control
NCI-H322M = assay: Growth inhibition of human NCI-H322M cells at 10^-5 M relative to control; assay type: functional; details: values are per cent of control
T47D = assay: Growth inhibition of human T47D cells at 10^-5 M relative to control; assay type: functional; details: values are per cent of control
[3] = Growth inhibition of human UO31 cells at 10^-5 M relative to control; assay type: functional; details: UO-31, values are per cent of control
NCI-H522 = assay: Growth inhibition of human NCI-H522 cells at 10^-5 M relative to control; assay type: functional; details: values are per cent of control
SR = assay: Growth inhibition of human SR cells at 10^-5 M relative to control; assay type: functional; details: values are per cent of control
[4] = Growth inhibition of human NCI-ADR-RES cells at 10^-5 M relative to control; assay type: functional; details: values are per cent of control
MOLT-4 = assay: Growth inhibition of human MOLT4 cells at 10^-5 M relative to control; assay type: functional; details: values are per cent of control
CAKI-1 = assay: Growth inhibition of human CAKI-1 cells at 10^-5 M relative to control; assay type: functional; details: values are per cent of control
SNB-75 = assay: Growth inhibition of human SNB75 cells at 10^-5 M relative to control; assay type: functional; details: values are per cent of control
[5] = Growth inhibition of human OVCAR5 cells at 10^-5 M relative to control; assay type: functional; details: OVCAR-5, values are per cent of control
NCI-H226 = assay: Growth of human NCI-H226 cells at 10^-5 M relative to control

SMILES	growth, % of control at 10 µM [2] [%]	growth, % of control at 10 µM (MCF7) [%]	growth, % of control at 10 µM (HCT-15) [%]	growth, % of control at 10 µM (LOX IMVI) [%]	growth, % of control at 10 µM (K562) [%]	growth, % of control at 10 µM (SK-MEL-5) [%]	growth, % of control at 10 µM (HL-60(TB)) [%]	growth, % of control at 10 µM (IGROV-1) [%]	growth, % of control at 10 µM (HCT-116) [%]	growth, % of control at 10 µM (PC-3) [%]	growth, % of control at 10 µM (MDA-MB-468) [%]	growth, % of control at 10 µM (CCRF-CEM) [%]	growth, % of control at 10 µM (T47D) [%]	growth, % of control at 10 µM [3] [%]	growth, % of control at 10 µM (SR) [%]	growth, % of control at 10 µM [4] [%]	growth, % of control at 10 µM (MOLT-4) [%]	growth, % of control at 10 µM (CAKI-1) [%]	growth, % of control at 10 µM (SNB-75) [%]	growth, % of control at 10 µM [5] [%]	further results
O=c1[nH]c(=O)n([C@H]2C[C@@H]3[C@@H](/C=C/[C@@H](O)COc4cccc(Cl)c4)[C@H](O)C[C@@H]3O2)cc1I	–	–	–	–	–	–	–	–	–	–	–	–	–	–	–	–	–	–	–	–	Activity [1]: 64%
Nc1ncnc2c1ncn2[C@H]1C[C@H]2[C@H](CO)[C@@H]1C[C@@H]2Cl	106	100	97.5	91.8	97.1	96.5	95.8	103	89.2	99.3	103	90.1	102	94.2	88.9	103	85.6	86.9	103	90.1	growth, % of control at 10 µM (NCI-H322M): 102%; growth, % of control at 10 µM (NCI-H522): 98.7%; growth, % of control at 10 µM (NCI-H226): 110%
CN(C)c1ncnc2c1ncn2[C@H]1C[C@H]2[C@H](CO)[C@@H]1C[C@@H]2Cl	109	94.9	100	96.8	91	99.5	98.2	101	101	93.3	102	86.7	96.8	79.1	81.4	98.7	78.9	95.1	99.3	90.3	growth, % of control at 10 µM (NCI-H322M): 96.8%; growth, % of control at 10 µM (NCI-H522): 88.3%; growth, % of control at 10 µM (NCI-H226): 101%
CN(C)c1ncnc2c1ncn2[C@H]1C[C@@H]2C=C[C@H]1[C@H]2CO	109	98.7	98.9	95.8	90	98.3	88.8	98.2	94.8	92	98.2	87.9	104	82.7	82.2	99.5	79.7	97.9	109	96.5	growth, % of control at 10 µM (NCI-H322M): 104%; growth, % of control at 10 µM (NCI-H522): 98.5%; growth, % of control at 10 µM (NCI-H226): 109%
OC[C@H]1[C@@H]2C[C@H](n3cnc4c(NC5CC5)ncnc43)[C@H]1C[C@@H]2Cl	110	98.5	96.5	89.6	95.8	101	89	90.6	96.5	104	100	89.5	89.6	85.8	86.6	101	84.8	102	97.8	95	growth, % of control at 10 µM (NCI-H322M): 90%; growth, % of control at 10 µM (NCI-H522): 88.7%; growth, % of control at 10 µM (NCI-H226): -27.2%
OC[C@H]1[C@@H]2C[C@H](n3cnc4c(NC5CCCC5)ncnc43)[C@H]1C[C@@H]2Cl	104	97.2	93.7	89.7	93.1	95.7	118	–	99.8	95.3	102	83.7	94.1	99.6	86.5	103	87.1	99	88	98.8	growth, % of control at 10 µM (NCI-H522): 101%
OC[C@H]1[C@@H]2C[C@H](n3cnc4c(NCCc5ccccc5)ncnc43)[C@H]1C[C@@H]2Cl	87	89.9	81.7	92.7	91.1	73.9	120	105	101	89.1	89.4	87.6	86.8	73.8	84.1	88.2	83.3	96	106	104	growth, % of control at 10 µM (NCI-H322M): 99.5%
CCN(CC)CCCNc1ncnc2c1ncn2[C@H]1C[C@H]2[C@H](CO)[C@@H]1C[C@@H]2Cl	111	95.9	101	96.9	106	102	90.5	112	98.5	102	101	90.2	104	80.6	85.8	103	83.6	93	99.2	99.7	growth, % of control at 10 µM (NCI-H322M): 93.2%; growth, % of control at 10 µM (NCI-H522): 93.2%; growth, % of control at 10 µM (NCI-H226): 105%
CN1CCN(c2ncnc3c2ncn3[C@H]2C[C@H]3[C@H](CO)[C@@H]2C[C@@H]3Cl)CC1	111	84	97.7	98	107	99.4	86	92.7	101	96.2	101	90.5	100	78.5	81	100	83.4	98.4	107	96.4	growth, % of control at 10 µM (NCI-H322M): 92.7%; growth, % of control at 10 µM (NCI-H226): 102%
OC[C@H]1[C@@H]2C[C@H](n3cnc4c(N5CCOCC5)ncnc43)[C@H]1C[C@@H]2Cl	113	99.9	93	95.8	90.7	99.8	91.9	92.3	89.6	98.5	110	84.9	100	76.9	82.3	99	81.1	87.2	85.6	93	growth, % of control at 10 µM (NCI-H322M): 100%; growth, % of control at 10 µM (NCI-H522): 94.5%; growth, % of control at 10 µM (NCI-H226): 108%
